{
  "source": "paper PMC6264317",
  "about": "“Acetylcholinesterase-inhibiting Alkaloids from Zephyranthes concolor” (Molecules, 2011)",
  "key": {"[1]": {"experiment": "Cytotoxicity in non-infected MT-4 cells (MTT)", "format": "cell-based, human", "settings": "human", "procedure": "(§1) Anti-HIV activity and cytotoxicity were evaluated in human MT-4 cells based on viability of cells that have been infected or not infected with HIV-1 following exposure to various concentrations of the test compound according to the procedure previously described. After proliferation for 5 days the number of viable MT-4 cells was quantified by tetrazolium-based colorimetric method (MTT). The HIV-1 NL4-3 virus used was a molecular clone obtained from the National Institute of Health (Bethesda, USA) that was propagated and tittered in MT-4 cells. All anti-HIV evaluations were done in triplicate in two separate experiments."}, "HIV-1 (NL4-3)": {"tested_on": "HIV-1 (NL4-3)", "experiment": "Anti-HIV activity in MT-4 cells (MTT viability of infected cells)", "format": "cell-based", "settings": "for EC50: Human immunodeficiency virus 1, NL43, MT4, 120 h, read-out: EC50 HIV-1 (NL4-3): effective concentration needed to inhibit 50% HIV-induced cell death, 5 days", "procedure": "as §1"}, "[2]": {"biological_target": "T1, electric eel acetylcholinesterase (Electrophorus electricus, UniProt O42275)", "T1 construct": "purchased Sigma Aldrich Chemie (Stenheim, Germany) type V-S", "T1 sequence (O42275 24-633)": "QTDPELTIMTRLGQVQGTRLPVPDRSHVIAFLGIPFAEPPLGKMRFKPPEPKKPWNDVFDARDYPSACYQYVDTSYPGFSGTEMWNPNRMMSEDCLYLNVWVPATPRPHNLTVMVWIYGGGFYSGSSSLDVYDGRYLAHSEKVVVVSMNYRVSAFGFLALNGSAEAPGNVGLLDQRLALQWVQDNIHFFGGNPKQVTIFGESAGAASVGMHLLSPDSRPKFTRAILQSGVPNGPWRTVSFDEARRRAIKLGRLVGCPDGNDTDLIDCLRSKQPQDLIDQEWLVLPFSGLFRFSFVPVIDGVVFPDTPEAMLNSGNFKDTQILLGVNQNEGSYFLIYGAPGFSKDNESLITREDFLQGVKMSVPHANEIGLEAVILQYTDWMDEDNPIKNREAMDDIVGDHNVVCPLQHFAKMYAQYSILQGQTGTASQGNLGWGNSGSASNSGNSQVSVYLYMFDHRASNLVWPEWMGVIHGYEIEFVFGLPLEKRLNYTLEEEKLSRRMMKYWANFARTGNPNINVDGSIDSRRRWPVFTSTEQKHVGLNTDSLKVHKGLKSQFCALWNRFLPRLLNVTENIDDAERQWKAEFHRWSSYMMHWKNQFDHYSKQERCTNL", "experiment": "biochemical", "procedure": "The assay for measuring acetylcholinesterase (AChE) inhibitory activity was performed in 96 well microtitre plates as previously described. […] Acetylcholinesterase from Electrophorus electricus L. (electric eel) type V-S lyophilized powder, acetyl-thiocholine iodide (ATCI), and 5,5′-dithio-bis[2-nitrobenzoic acid] (DNTB) were obtained from Sigma Aldrich Chemie (Stenheim, Germany). Fifty microliters of AChE solution (500 U/mL) in phosphate buffer (8 mM K2HPO4, 2.3 mM NaH2PO4, 0.15 M NaCl, 0.05% Tween 20, pH 7.6), and 50 μL of the compound dissolved in the same buffer were added to each of the wells. The plates were incubated for 30 min at room temperature before addition of 100 μL of the substrate solution (0.1 M NaH2PO4, […], 0.6 mM ATCI in Millipore water, pH 7.5). Absorbance was recorded in a Labsystems Microplate Reader (Helsinki, Finland) at 405 nm after 6 min. Enzyme activity was calculated as percentage compared to an assay using a buffer without the tested compound. The AChE inhibitory data were analysed with the Prism software package (Graph Pad Inc., San Diego, USA)."}, "HIV-1": {"tested_on": "HIV-1", "settings": "human MT4 cells; cited from earlier work"}, "human MT4 cells": {"tested_on": "human MT4 cells", "settings": "cited from earlier work"}, "[3]": {"tested_on": "electric eel acetylcholinesterase", "settings": "cited from earlier work"}, "human MT-4 cells": {"tested_on": "human MT-4 cells", "experiment": "Cytotoxicity in non-infected MT-4 cells (MTT)", "format": "cell-based", "settings": "5 days", "procedure": "as §1"}, "[4]": {"settings": "means ± SD of three determinations (10^−8 to 10^−3 M), read-out: EC50 (M), acetylcholinesterase inhibitory activity"}, "[5]": {"settings": "in vitro, read-out: EC50, inhibition of electric eel acetylcholinesterase in vitro"}},
  "note": "Where two headings read alike, the source gives them in different places.",
  "data": [
    {"smiles": "COc1ccc2c3c1O[C@H]1C[C@@H](O)C=C[C@@]31CCN(C)C2", "note": "[Galanthamine (2), galanthamine, reference compound]", "values": [
      {"measurement": "CC50 at 5 days", "setting": "[1]", "value": "> 25", "unit": "µg/mL"},
      {"measurement": "EC50", "setting": "HIV-1 (NL4-3)", "value": "> 25", "unit": "µg/mL"}
    ]},
    {"smiles": "COc1cc2c(cc1O)[C@@H]1[C@H](OC2=O)[C@@H](OC)[C@@H]2O[C@@]23CCN(C)[C@@H]13", "note": "[Galwesine (5), galwesine]", "values": [
      {"measurement": "CC50 at 5 days", "setting": "[1]", "value": 71.4, "unit": "µg/mL"},
      {"measurement": "acetylcholinesterase inhibition in words", "setting": "[2]; at 10^−3 M", "value": "inactive"},
      {"measurement": "EC50", "setting": "[2]; [4]", "value": "> 0.001", "unit": "M"},
      {"measurement": "EC50", "setting": "HIV-1 (NL4-3)", "value": "> 71.4", "unit": "µg/mL"}
    ]},
    {"smiles": "CO[C@@H]1C=C[C@@]23c4cc5c(cc4CN(C[C@@H]2O)[C@H]3C1)OCO5", "note": "[haemanthamine]", "values": [
      {"measurement": "therapeutic index TI50", "setting": "HIV-1", "value": "even lower therapeutic indices than lycorine"}
    ]},
    {"smiles": "COC1C=CC23CCN(C)Cc4ccc(O)c(c42)OC3C1", "note": "(centres unmarked) [Chlidanthine (1), chlidanthine]", "values": [
      {"measurement": "CC50 at 5 days", "setting": "[1]", "value": "> 25", "unit": "µg/mL"},
      {"measurement": "EC50", "setting": "[2]; [5]", "value": "2.4e-05", "unit": "M"},
      {"measurement": "EC50", "setting": "[2]; [4]", "value": "2.41e-05", "unit": "M"},
      {"measurement": "EC50", "setting": "HIV-1 (NL4-3)", "value": "> 25", "unit": "µg/mL"}
    ]},
    {"smiles": "c1ccc2c(c1)ncc1cc3c(cc12)OCO3", "note": "[trisphaeri-dine, trisphaeridine]", "values": [
      {"measurement": "therapeutic index TI50", "setting": "HIV-1", "value": "even lower therapeutic indices than lycorine"}
    ]},
    {"smiles": "COc1ccc2c3c1O[C@H]1C[C@@H](O)C=C[C@@]31CC[N+](C)([O-])C2", "note": "(some centres unmarked) [Galanthamine N-oxide (3), galanthamine N-oxide]", "values": [
      {"measurement": "CC50 at 5 days", "setting": "[1]", "value": "> 25", "unit": "µg/mL"},
      {"measurement": "EC50", "setting": "[2]; [5]", "value": "2.6e-05", "unit": "M"},
      {"measurement": "EC50", "setting": "[2]; [4]", "value": "2.62e-05", "unit": "M"},
      {"measurement": "EC50", "setting": "HIV-1 (NL4-3)", "value": "> 25", "unit": "µg/mL"}
    ]},
    {"smiles": "O[C@H]1[C@H]2c3cc4c(cc3CN3CCC(=C[C@@H]1O)[C@H]23)OCO4", "note": "[Lycorine (4), lycorine]", "values": [
      {"measurement": "CC50 at 5 days", "setting": "[1]", "value": 0.48, "unit": "µg/mL"},
      {"measurement": "anti-HIV-1 activity ID50", "setting": "HIV-1", "value": 0.4, "unit": "µg/mL"},
      {"measurement": "therapeutic index TI50", "setting": "HIV-1", "value": 1.9},
      {"measurement": "EC50", "setting": "HIV-1 (NL4-3)", "value": "> 0.5", "unit": "µg/mL"},
      {"measurement": "cytotoxicity TC50", "setting": "human MT4 cells", "value": 0.75, "unit": "µg/mL"},
      {"measurement": "acetylcholinesterase inhibitory activity in words", "setting": "[3]", "value": "inactive"}
    ]},
    {"smiles": "CN1CC[C@@]23C=C[C@H](O)C[C@@H]2Oc2c(O)ccc(c23)C1", "note": "[sanguinine]", "values": [
      {"measurement": "increase of the AChE inhibitory activity relative to galanthamine", "setting": "[3]", "value": "~10", "unit": "fold"}
    ]},
    {"smiles": "c1cc(CN2CCCNCCNCCCNCC2)ccc1CN1CCCNCCNCCCNCC1", "note": "[AMD3100, reference compound]", "values": [
      {"measurement": "CC50 at 5 days", "setting": "[1]", "value": "> 5", "unit": "µg/mL"},
      {"measurement": "EC50", "setting": "HIV-1 (NL4-3)", "value": 0.001, "unit": "µg/mL"}
    ]},
    {"smiles": "COc1ccc2c3c1O[C@H]1C[C@H](O)C=C[C@@]31CCNC2", "note": "[Epinorgalanthamine (6), epinorgalanthamine]", "values": [
      {"measurement": "CC50 at 5 days", "setting": "[1]", "value": 13, "unit": "µg/mL"},
      {"measurement": "EC50", "setting": "HIV-1 (NL4-3)", "value": "> 13", "unit": "µg/mL"},
      {"measurement": "EC50", "setting": "[3]; previously reported, read-out: acetylcholinesterase inhibitory properties", "value": 9.6, "unit": "µM"}
    ]},
    {"smiles": "Cc1ccnc2c1NC(=O)c1cccnc1N2C1CC1", "note": "[Nevirapine, reference compound]", "values": [
      {"measurement": "CC50 at 5 days", "setting": "[1]", "value": "> 2", "unit": "µg/mL"},
      {"measurement": "EC50", "setting": "HIV-1 (NL4-3)", "value": 0.034, "unit": "µg/mL"}
    ]},
    {"smiles": "COc1cc2c(cc1OC)[C@H]1[C@H]3C(=CC[C@H]1OC2=O)CCN3C", "note": "[homolycorine]", "values": [
      {"measurement": "therapeutic index TI50", "setting": "HIV-1", "value": "even lower therapeutic indices than lycorine"}
    ]},
    {"smiles": "Cc1cn([C@H]2C[C@H](N=[N+]=[N-])[C@@H](CO)O2)c(=O)[nH]c1=O", "note": "[AZT, reference compound]", "values": [
      {"measurement": "CC50 No virus: concentration needed to induce 50% death of non-infected cells", "setting": "human MT-4 cells", "value": ">1", "unit": "µg/mL"},
      {"measurement": "EC50 HIV-1 (NL4-3): effective concentration needed to inhibit 50% HIV-induced cell death", "setting": "HIV-1 (NL4-3); 5 days", "value": 0.7, "unit": "ng/mL"}
    ]},
    {"smiles": "COc1ccc2c3c1O[C@H]1C[C@H](O)CC[C@@]31CCNC2", "note": "[epinorlycoramine]", "values": [
      {"measurement": "acetylcholinesterase inhibitory activity in words", "setting": "[3]", "value": "completely lost"}
    ]},
    {"smiles": "COc1ccc2c3c1O[C@H]1C[C@@H](O)CC[C@]31CCN(C)C2", "note": "[lycoramine]", "values": [
      {"measurement": "acetylcholinesterase inhibitory activity in words", "setting": "[3]", "value": "completely lost"}
    ]}
  ]
}
